# Measurements reported in US11547697B2, “Heterocyclic compounds and uses thereof” (MILLENNIUM PHARMACEUTICALS, INC., priority 2009, dated 2023).
# Like-named read-outs stand apart in the source and are kept apart here.
# How the values were obtained:
# Assay type in all cases: biochemical
# p110α/p85α = p110α/p85α (Homo sapiens (Human), UniProt P42336); assay: PI 3-Kinase (human) HTRF assay, p110α/p85α
# Experimental: An exemplary system is PI 3-Kinase (human) HTRF™ Assay from Upstate. […] Briefly, the assay is a time resolved FRET assay that indirectly measures PIP3 product formed by the activity of a PI3-K. The kinase reaction is performed in a microtitre plate (e.g., a 384 well microtitre plate). The total reaction volume is approximately 20 ul per well. In the first step, each well receives 2 ul of test compound in 20% dimethylsulphoxide resulting in a 2% DMSO final concentration. Next, approximately 14.5 ul of a kinase/PIP2 mixture (diluted in 1× reaction buffer) is added per well for a final concentration of 0.25-0.3 ug/ml kinase and 10 μM PIP2. The plate is sealed and incubated for 15 minutes at room temperature. To start the reaction, 3.5 ul of ATP (diluted in 1× reaction buffer) is added per well for a final concentration of 10 μM ATP. The plate is sealed and incubated for 1 hour at room temperature. The reaction is stopped by adding 5 ul of Stop Solution per well and then 5 ul of Detection Mix is added per well. The plate is sealed, incubated for 1 hour at room temperature, and then read on an appropriate plate reader. Data is analyzed and IC50s are generated using GraphPad Prism 5. […] For PI3K α, β, δ, and γ, the nM concentration of inhibitor to reach IC50 is provided.
# p110γ = p110γ (Homo sapiens (Human), UniProt P48736); assay: PI 3-Kinase (human) HTRF assay, p110γ
# Sequence of p110γ (P48736 whole entry): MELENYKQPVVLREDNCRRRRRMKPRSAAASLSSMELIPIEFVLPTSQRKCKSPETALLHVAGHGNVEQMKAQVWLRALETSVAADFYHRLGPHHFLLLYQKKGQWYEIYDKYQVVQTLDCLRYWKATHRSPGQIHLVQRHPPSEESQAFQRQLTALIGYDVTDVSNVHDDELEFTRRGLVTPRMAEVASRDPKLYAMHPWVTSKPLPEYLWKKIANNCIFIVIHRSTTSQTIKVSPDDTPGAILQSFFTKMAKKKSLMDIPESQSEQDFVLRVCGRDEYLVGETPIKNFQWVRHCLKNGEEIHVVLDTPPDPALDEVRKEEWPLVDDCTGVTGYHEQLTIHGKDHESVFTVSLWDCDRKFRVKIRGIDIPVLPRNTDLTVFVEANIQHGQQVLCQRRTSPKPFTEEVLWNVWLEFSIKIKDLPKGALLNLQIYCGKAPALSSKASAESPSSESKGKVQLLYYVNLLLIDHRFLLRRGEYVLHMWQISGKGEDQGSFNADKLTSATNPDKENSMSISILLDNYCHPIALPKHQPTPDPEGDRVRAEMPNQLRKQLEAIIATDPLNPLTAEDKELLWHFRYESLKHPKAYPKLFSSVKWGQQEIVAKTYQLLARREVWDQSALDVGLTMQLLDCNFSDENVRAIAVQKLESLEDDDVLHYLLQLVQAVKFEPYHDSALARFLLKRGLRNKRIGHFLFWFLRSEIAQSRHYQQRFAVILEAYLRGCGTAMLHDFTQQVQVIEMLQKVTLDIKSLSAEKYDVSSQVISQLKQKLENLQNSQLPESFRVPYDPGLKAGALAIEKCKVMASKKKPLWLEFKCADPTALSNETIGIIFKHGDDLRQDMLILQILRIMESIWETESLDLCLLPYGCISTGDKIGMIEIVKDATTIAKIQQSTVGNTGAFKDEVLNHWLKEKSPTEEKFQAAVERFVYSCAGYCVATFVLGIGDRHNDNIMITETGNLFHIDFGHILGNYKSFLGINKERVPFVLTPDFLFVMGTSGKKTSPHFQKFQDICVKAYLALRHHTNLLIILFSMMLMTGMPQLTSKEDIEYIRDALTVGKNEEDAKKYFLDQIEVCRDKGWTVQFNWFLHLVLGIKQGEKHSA
# p110β/p85α = p110β/p85α (Homo sapiens (Human), UniProt P42338); assay: PI 3-Kinase (human) HTRF assay, p110β/p85α; details: read-out: PI3K β IC50
# Sequence of p110β/p85α (P42338 whole entry): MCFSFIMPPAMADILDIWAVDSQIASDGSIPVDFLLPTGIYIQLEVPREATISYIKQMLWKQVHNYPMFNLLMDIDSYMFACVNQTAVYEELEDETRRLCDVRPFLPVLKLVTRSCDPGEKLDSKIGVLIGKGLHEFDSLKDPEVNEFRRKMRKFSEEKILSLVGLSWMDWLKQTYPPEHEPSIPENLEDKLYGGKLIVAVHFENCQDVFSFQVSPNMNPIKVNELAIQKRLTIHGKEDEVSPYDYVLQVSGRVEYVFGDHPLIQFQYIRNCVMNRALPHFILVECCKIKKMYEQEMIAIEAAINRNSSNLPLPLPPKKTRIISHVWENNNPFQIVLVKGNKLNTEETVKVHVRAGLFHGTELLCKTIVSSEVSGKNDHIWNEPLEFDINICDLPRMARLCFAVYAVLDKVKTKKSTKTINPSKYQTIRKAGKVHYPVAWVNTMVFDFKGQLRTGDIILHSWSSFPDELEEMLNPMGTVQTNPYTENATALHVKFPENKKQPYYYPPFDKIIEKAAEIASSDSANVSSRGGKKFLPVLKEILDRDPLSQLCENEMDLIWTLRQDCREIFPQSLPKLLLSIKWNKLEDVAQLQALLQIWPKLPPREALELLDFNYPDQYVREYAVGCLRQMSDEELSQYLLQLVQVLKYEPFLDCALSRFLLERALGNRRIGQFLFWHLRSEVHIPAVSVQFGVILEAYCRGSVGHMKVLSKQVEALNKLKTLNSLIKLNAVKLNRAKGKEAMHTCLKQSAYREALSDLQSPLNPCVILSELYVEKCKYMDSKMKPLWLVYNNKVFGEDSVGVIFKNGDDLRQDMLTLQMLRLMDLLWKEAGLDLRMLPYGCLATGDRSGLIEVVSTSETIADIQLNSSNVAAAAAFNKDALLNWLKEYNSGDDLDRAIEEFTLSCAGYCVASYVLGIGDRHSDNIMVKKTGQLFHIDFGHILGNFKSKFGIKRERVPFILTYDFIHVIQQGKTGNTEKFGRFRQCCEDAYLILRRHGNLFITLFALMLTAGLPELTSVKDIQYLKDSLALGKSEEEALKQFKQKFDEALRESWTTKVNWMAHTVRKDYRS
# Sequence of p110β/p85α (P27986 whole entry partner): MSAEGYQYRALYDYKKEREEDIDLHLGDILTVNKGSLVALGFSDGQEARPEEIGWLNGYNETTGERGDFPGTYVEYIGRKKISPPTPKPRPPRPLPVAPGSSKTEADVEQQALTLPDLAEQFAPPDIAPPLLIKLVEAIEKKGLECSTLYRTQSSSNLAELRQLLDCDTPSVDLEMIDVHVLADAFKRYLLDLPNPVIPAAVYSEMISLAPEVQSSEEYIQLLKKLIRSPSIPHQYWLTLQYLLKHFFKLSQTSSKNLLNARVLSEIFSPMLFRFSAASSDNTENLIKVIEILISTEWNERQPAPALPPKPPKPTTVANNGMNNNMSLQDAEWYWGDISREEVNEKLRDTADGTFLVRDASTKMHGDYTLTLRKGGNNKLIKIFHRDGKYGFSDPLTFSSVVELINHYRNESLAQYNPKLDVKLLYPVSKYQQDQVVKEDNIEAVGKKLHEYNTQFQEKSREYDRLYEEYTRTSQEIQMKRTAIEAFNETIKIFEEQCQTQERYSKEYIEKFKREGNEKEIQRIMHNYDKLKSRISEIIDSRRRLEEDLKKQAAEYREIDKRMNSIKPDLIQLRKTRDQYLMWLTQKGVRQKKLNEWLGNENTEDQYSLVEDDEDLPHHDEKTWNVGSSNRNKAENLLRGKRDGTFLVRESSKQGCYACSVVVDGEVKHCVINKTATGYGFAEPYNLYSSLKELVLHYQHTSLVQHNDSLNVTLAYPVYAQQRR
# [1] = in vitro, read-out: PI3K α IC50
# [2] = in vitro, read-out: PI3K γ IC50
# Sequence of p110α/p85α (P42336 whole entry): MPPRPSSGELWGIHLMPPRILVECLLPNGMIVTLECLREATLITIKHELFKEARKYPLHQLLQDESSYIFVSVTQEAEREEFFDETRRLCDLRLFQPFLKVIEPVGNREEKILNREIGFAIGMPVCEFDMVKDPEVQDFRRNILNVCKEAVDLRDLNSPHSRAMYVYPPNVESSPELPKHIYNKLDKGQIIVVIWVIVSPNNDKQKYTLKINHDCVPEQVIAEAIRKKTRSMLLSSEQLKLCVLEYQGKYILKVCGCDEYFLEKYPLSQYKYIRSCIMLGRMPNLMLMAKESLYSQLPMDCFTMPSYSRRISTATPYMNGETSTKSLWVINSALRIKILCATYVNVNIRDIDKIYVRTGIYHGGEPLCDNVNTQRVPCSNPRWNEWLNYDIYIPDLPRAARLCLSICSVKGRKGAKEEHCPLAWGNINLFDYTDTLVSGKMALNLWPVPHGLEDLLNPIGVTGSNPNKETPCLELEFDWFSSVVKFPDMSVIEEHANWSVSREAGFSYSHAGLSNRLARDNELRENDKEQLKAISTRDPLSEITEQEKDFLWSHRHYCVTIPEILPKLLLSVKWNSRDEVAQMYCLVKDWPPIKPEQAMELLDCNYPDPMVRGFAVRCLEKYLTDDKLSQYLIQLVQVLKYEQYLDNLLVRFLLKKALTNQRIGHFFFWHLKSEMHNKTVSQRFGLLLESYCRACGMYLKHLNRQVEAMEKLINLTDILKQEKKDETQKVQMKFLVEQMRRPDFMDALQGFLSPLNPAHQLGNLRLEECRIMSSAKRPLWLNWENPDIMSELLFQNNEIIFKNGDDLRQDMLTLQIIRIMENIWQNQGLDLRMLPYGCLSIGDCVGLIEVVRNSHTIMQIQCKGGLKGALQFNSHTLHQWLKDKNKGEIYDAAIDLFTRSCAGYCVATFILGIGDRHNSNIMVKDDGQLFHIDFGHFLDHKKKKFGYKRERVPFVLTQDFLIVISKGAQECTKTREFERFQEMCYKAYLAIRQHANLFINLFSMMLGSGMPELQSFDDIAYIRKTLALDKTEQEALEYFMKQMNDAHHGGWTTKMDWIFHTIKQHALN
# Sequence of p110α/p85α (P27986 whole entry partner): as the sequence (P27986 whole entry partner) above
compound,measurement,setting,value
Cc1ccc(-c2cnc3ccc(-c4ccc5oc(N)nc5c4)cc3n2)cn1 [compound 194],IC50,p110α/p85α; read-out: PI3K α IC50,< 100 nM
same,IC50,p110γ; read-out: PI3K γ IC50,< 100 nM
Nc1noc2ccc(-c3ccc4nccc(-c5ccncc5)c4c3)cc12 [compound 18],IC50,p110α/p85α; read-out: PI3K α IC50,< 10000 nM
same,IC50,p110γ; read-out: PI3K γ IC50,< 10000 nM
Nc1nc2cc(-c3ccc4ncc(N5CC(N6CCOCC6)C5)nc4c3)c(Cl)cc2o1 [compound 371],IC50,p110α/p85α; [1],< 1000 nM
same,IC50,p110β/p85α; in vitro,< 10000 nM
Nc1nc2cc(-c3ccc4ncc(N5CCNCC5=O)nc4c3)ccc2o1 [compound 389],IC50,p110α/p85α; [1],< 1000 nM
same,IC50,p110γ; [2],< 10000 nM
CN1CCN(C(=O)c2cnc3ccc(-c4ccc5sc(N)nc5c4)cn23)CC1 [compound 144],IC50,p110α/p85α; read-out: PI3K α IC50,< 1000 nM
same,IC50,p110β/p85α,< 10000 nM
Nc1nc2cc(-c3ccc4ncc(C(=O)N5CCC(F)CC5)n4c3)ccc2o1 [compound 503],IC50,p110α/p85α; read-out: PI3K α In Vitro IC50,< 1000 nM
same,IC50,p110γ; read-out: PI3K γ In Vitro IC50,< 100 nM
CN1CCN(C(=O)c2cnc3ccc(-c4ccc5nc(N)sc5c4)cn23)CC1 [compound 146],IC50,p110α/p85α; read-out: PI3K α IC50,< 10000 nM
same,IC50,p110β/p85α,< 10000 nM
Nc1nc2cc(-c3ccc4ncn(C5CC5)c(=O)c4c3)ccc2o1 [compound 254],IC50,p110α/p85α; [1],< 1000 nM
same,IC50,p110γ; [2],< 1000 nM
Nc1nc2cc(-c3ccc4ncc(C(=O)N5CCC6(C5)OCCO6)n4c3)ccc2o1 [compound 499],IC50,p110α/p85α; read-out: PI3K α In Vitro IC50,< 1000 nM
same,IC50,p110γ; read-out: PI3K γ In Vitro IC50,< 10000 nM
O=C(c1cnc2ccc(-c3cccc(NS(=O)(=O)c4ccccc4)c3)cn12)N1CCOCC1 [compound 453],IC50,p110α/p85α; read-out: PI3K α In Vitro IC50,< 10000 nM
same,IC50,p110γ; read-out: PI3K γ In Vitro IC50,< 10000 nM
Nc1nc2cc(-c3ccc4ncc(C(=O)N5CCC(F)(F)CC5)n4c3)ccc2o1 [compound 501],IC50,p110α/p85α; read-out: PI3K α In Vitro IC50,< 1000 nM
same,IC50,p110γ; read-out: PI3K γ In Vitro IC50,< 10000 nM
CC1CN(C(=O)c2cnc3ccc(-c4ccc5oc(N)nc5c4)cn23)CCN1 (stereo not shown) [compound 164],IC50,p110α/p85α; read-out: PI3K α IC50,< 1000 nM
same,IC50,p110β/p85α,< 1000 nM
Nc1cn2cc(-c3ccc4nc(N)oc4c3)ccc2n1 [compound 247],IC50,p110β/p85α; in vitro,< 10000 nM
same,IC50,p110γ; [2],< 10000 nM
Cc1cc2oc(N)nc2cc1-c1ccc2ncc(N3CCN[C@@H](C)C3)nc2c1 [compound 351],IC50,p110α/p85α; [1],< 10000 nM
same,IC50,p110β/p85α; in vitro,< 1000 nM
NC(=O)[C@@H]1CCCN1C(=O)c1cnc2ccc(-c3ccc4oc(N)nc4c3)cn12 [compound 259],IC50,p110α/p85α; [1],< 1000 nM
same,IC50,p110γ; [2],< 10000 nM
Cc1ccn(C2CCN(C(=O)c3cnc4ccc(-c5ccc6oc(N)nc6c5)cn34)CC2)n1 [compound 297],IC50,p110α/p85α; [1],< 1000 nM
same,IC50,p110γ; [2],< 10000 nM
C[C@H]1CN(c2cnc3ccc(-c4ccc5sc(N)nc5c4)cc3n2)CCN1 [compound 307],IC50,p110α/p85α; [1],< 1000 nM
same,IC50,p110β/p85α; in vitro,< 1000 nM
Nc1nc2cc(-c3ccc4ncc(C(=O)N5CC[C@H](N6CCOCC6)C5)n4c3)ccc2o1 [compound 465],IC50,p110α/p85α; read-out: PI3K α In Vitro IC50,< 100 nM
same,IC50,p110γ; read-out: PI3K γ In Vitro IC50,< 1000 nM
C[C@H]1CN(c2cnc3cccc(-c4ccc5nc(N)oc5c4)c3n2)CCN1 [compound 343],IC50,p110β/p85α; in vitro,< 10000 nM
O=C(c1cnc2ccc(-c3ccc(Cl)c(NS(=O)(=O)c4ccccc4)c3)cn12)N1CCOCC1 [compound 459],IC50,p110α/p85α; read-out: PI3K α In Vitro IC50,< 1000 nM
same,IC50,p110γ; read-out: PI3K γ In Vitro IC50,< 1000 nM
CN1CCN(c2cnc3ccc(-c4ccc5oc(N)nc5c4)cc3n2)C(=O)C1 [compound 390],IC50,p110α/p85α; [1],< 1000 nM
same,IC50,p110γ; [2],< 10000 nM
Nc1nc2cc(-c3ccc4ncc(C(=O)N5CCNCC5)n4c3)ccc2o1 [compound 111],IC50,p110α/p85α; read-out: PI3K α IC50,< 100 nM
same,IC50,p110β/p85α,< 10000 nM
Nc1nc2cc(-c3ccc4nccc(NC5CCOCC5)c4c3)ccc2o1 [compound 32],IC50,p110α/p85α; read-out: PI3K α IC50,< 10000 nM
same,IC50,p110γ; read-out: PI3K γ IC50,< 10000 nM
CN1CCCN(C(=O)c2cnc3ccc(-c4ccc5oc(N)nc5c4)cn23)CC1 [compound 140],IC50,p110α/p85α; read-out: PI3K α IC50,< 1000 nM
same,IC50,p110β/p85α,< 10000 nM
Nc1nc2cc(-c3ccc4ncc(N5CCS(=O)(=O)CC5)nc4c3)ccc2o1 [compound 98],IC50,p110α/p85α; read-out: PI3K α IC50,< 100 nM
same,IC50,p110γ; read-out: PI3K γ IC50,< 100 nM
